Test results published in US20060188566A1, “Nanoparticulate formulations of docetaxel and analogues thereof” (Elan Pharma International Limited, priority 2005, published 2006).

Key:
microtubules = details: compared with docetaxel; cited from earlier work
[1] = Particle size of unmilled (conventional, non-nanoparticulate) docetaxel; assay type: physicochemical
Description: Unmilled trihydrate docetaxel has a mean particle size of 61,610 nm, with a D50 of 51,060 nm and a D90 of 119,690 nm.

[2] = cited from earlier work
[3] = test system: plasma proteins, primarily albumin, α1-acid glycoproteins, and lipoproteins; details: in vitro; cited from earlier work
[4] = test system: COX-2 expression in human monocytes; details: human monocytes / human cells; cited from earlier work
[5] = cited from earlier work; remark: listed apart in the source
mice = details: mouse, in vivo, iv
Description: The purpose of this experiment was to determine the maximum tolerated dose of a nanoparticulate docetaxel formulation.
To evaluate and characterize the acute toxicity of nanoparticulate docetaxel formulations, two nanoparticulate dispersions were utilized.
Both nanoparticulate docetaxel formulations were administered intravenously at various doses to mice.
The commercially available non-nanoparticulate docetaxel product, TAXOTERE®, was also tested in parallel with the nanoparticulate docetaxel formulations.

[6] = test system: COX-2 expression in murine cells; details: cited from earlier work
[7] = phase I trial; cited from earlier work
[8] = IV administration of a 100-mg/m^2 dose, SD=0.8
[9] = intravenous doses of 70 mg/m^2 to 115 mg/m^2, 3-compartment model, TAXOTERE®

## CC(=O)OC12COC1CC(O)C1(C)C(=O)C(O)C3=C(C)C(OC(=O)C(O)C(NC(=O)OC(C)(C)C)c4ccccc4)CC(O)(C(OC(=O)C4CCCCC4)C21)C3(C)C (stereo not drawn) [2-(hexahydro)docetaxel]
microtubules
  inhibitory activity for microtubule disassembly: strong inhibitory activity for microtubule disassembly equivalent to docetaxel

## CC(=O)OC12COC1CC(O)C1(C)C(=O)C(O)C3=C(C)C(OC(=O)C(O)C(NC(=O)OC(C)(C)C)C4CCCCC4)CC(O)(C(OC(=O)c4ccccc4)C21)C3(C)C (stereo not drawn) [3′-dephenyl-3′-cyclohexyldocetaxel]
microtubules
  inhibitory activity for microtubule disassembly: strong inhibitory activity for microtubule disassembly equivalent to docetaxel

## CC(=O)O[C@@]12CO[C@@H]1C[C@H](O)[C@@]1(C)C(=O)[C@H](O)C3=C(C)[C@@H](OC(=O)[C@H](O)[C@@H](NC(=O)OC(C)(C)C)c4ccccc4)C[C@@](O)([C@@H](OC(=O)c4ccccc4)[C@H]21)C3(C)C [Unmilled trihydrate docetaxel, docetaxel]
[1]
  D50: 51,060 nm
  D90: 119,690 nm
  mean particle size: 61,610 nm

## CC(=O)O[C@@]12CO[C@@H]1C[C@H](O)[C@@]1(C)C(=O)[C@H](O)C3=C(C)[C@@H](OC(=O)[C@H](O)[C@@H](NC(=O)OC(C)(C)C)c4ccccc4)C[C@@](O)([C@@H](OC(=O)c4ccccc4)[C@H]21)C3(C)C [docetaxel, (2R, 3S)-N-carboxy-3-phenylisoserine, N-tert-butyl ester, 13-ester with 5β-20-epoxy-1, 2α, 4, 7β, 10β, 13α-hexahydroxytax-11-en-9-one 4-acetate 2-benzoate, trihydrate]
[2]
  solubility in water (in words): practically insoluble in water
[3]
  bound to plasma proteins: approximately 94%
[4]
  COX-2 expression induction: induces COX-2 expression only in human monocytes
[5]; [8]
  AUC: 4600 ng·h/mL
  mean peak plasma level: 3.7 µg/mL
[5]; cancer patients, IV
  steady-state volume of distribution (mean): 113 L
[5]; [9]
  mean population α half-life: 4 min
  mean population β half-life: 36 min
  mean population γ half-life: 666 min

## CC(=O)O[C@@]12CO[C@@H]1C[C@H](O)[C@@]1(C)C(=O)[C@H](O)C3=C(C)[C@@H](OC(=O)[C@H](O)[C@@H](NC(=O)OC(C)(C)C)c4ccccc4)C[C@@](O)([C@@H](OC(=O)c4ccccc4)[C@H]21)C3(C)C [unmilled docetaxel (anhydrous), docetaxel]
[1]
  D50: 175,530 nm
  D90: 435,810 nm
  mean particle size: 212,060 nm

## TAXOTERE®
mice
  maximum tolerated dose (MD): 40 mg/kg

## paclitaxel
[6]
  COX-2 expression induction: paclitaxel-induced COX-2 expression
[7]
  pharmacokinetic profile (linearity): nonlinear pharmacokinetics
[4]
  COX-2 expression induction: paclitaxel-induced COX-2 expression
